Experimental data taken from US20210332161A1, “CHLORINATED DERIVATIVE OF HYALURONIC ACID, METHOD OF PREPARATION THEREOF, A COMPOSITION CONTAINING THE DERIVATIVE, AND USE THEREOF” (CONTIPRO A.S., priority 2018, published 2021).
Where “and” joins values, the source holds several entries; their conditions need not be identical. Equal entries are not always repeated.

Tests used:
[1] = Stability of hyaluronan chloramide on standing (DS by NMR); format: physicochemical; settings: initial DS 85%
Protocol: 5 g of hyaluronan (Mw 2200 kg·mol^−1) were dissolved in 250 ml of distilled water. Subsequently, 2 ml of acetic acid were added and the solution was stirred at the temperature of 20° C. for 15 minutes. Then, a sodium salt of dichloroisocyanuric acid in the amount of 3.2 g (1 eq.) was added. Then, the mixture was stirred at a temperature of 20° C. for 48 hours. Subsequently, the mixture was precipitated by 2.5 litres of isopropanol and filtered. The solid portion was washed with 2 litres of isopropanol, whereupon it was vacuum dried for 20 hours. DS 85% (determined from NMR). The NMR solution (7 mg of the product in 0.7 ml of D2O) was measured after another 5 days of standing at 20° C. The DS value was determined as 84%. The solid portion in the form of powder was let stand at 20° C. for 100 days and after that the sample was dissolved in D2O. The DS value was determined as 84%.

[2] = test system: CVB3 (Nancy); assay: Testing of antiviral activity based on the plaque reduction; format: cell-based; settings: for PFU on PD, Average: average of 5 repeats; for PFU on PD, Average / PFU on PD: VERO cells; for PFU on PD: single Petri dishes (5 repeats), 5 hours incubation, listed as HA chloramide
Protocol: (§1) Number of repeats −5, tested substance prepared according to Example 19, virus subject to testing: CVB3 (Nancy) in the concentration of 3×10E7, 5 PFU/ml, VERO cellular substrate
(§2) After having been subject to 10^7-fold dilution in the volume of 1.5 ml, the virus was adsorbed on the cell substrate in Petri dishes for 30 minutes. The negative control contained PBS without viruses. Afterwards, the virus was removed by suction and the cells were interlayered by the tested substance (or by HA and PBS contained in the negative control materials), incubation at 37° C. and in the presence of 5% of CO2, for 5 hours. The cells were washed with PBS and covered by a layer of a medium containing EMEM supplemented with 5% of inactivated FBS and 0.75% of agarose. The incubation in an environment containing 5% of CO2 at 37° C. for 4 days. Subsequently, the medium was removed, the cells were stained by a crystal violet dye and the counts of plaques were determined. During the test, the antiviral activity was proportional to the reduction of the number of plaques.

[3] = test system: VERO cellular substrate; assay: Plaque test groups without virus (examination of the cells / of toxicity); format: cell-based, Cercopithecus aethiops; settings: 1% in PBS, no virus
Protocol: as §1, §2

[4] = single Petri dishes (5 repeats)

Substance	DS value of the NMR solution after standing ([1]; 7 mg of product in 0.7 ml D2O, another 5 days of standing at 20° C.)	DS value of the solid powder after standing ([1]; powder let stand at 20° C. for 100 days, then dissolved in D2O)	PFU on PD, Average ([2]; 0.1% in PBS)	PFU on PD ([2]; 0.1% in PBS)	PFU on PD, Average ([2]; 0.5% in PBS)	PFU on PD ([2]; 0.5% in PBS)	PFU on PD, Average ([2]; 1% in PBS)	inhibition of the viral growth compared to the standard with HA ([2]; Tests 1, 2 and 3 (0.1, 0.5, 1% in PBS), more efficient with increasing concentration)	PFU on PD, Average, Examination of the cells with HA ([3]; average of 5 repeats)	PFU on PD, Average, Examination of toxicity ([3]; average of 5 repeats)	PFU on PD, Examination of the cells with HA [3, 4]	PFU on PD, Examination of toxicity [3, 4]
Hyaluronan Chloramide [Example 16]	84%	84%										
Hyaluronan Chloramide [Example 19]			7.8 PFU	5 PFU and 7 PFU and 10 PFU and 8 PFU and 9 PFU	7.2 PFU	8 PFU and 5 PFU and 7 PFU	2.6 PFU	inhibition of the viral growth	0 PFU	0 PFU	0 PFU	0 PFU
Hyaluronic acid [HA, reference compound]							10.4 PFU					
